{"source": "patent US20090163481A1", "about": "“PPAR-DELTA LIGANDS AND METHODS OF THEIR USE” (priority 2007, published 2009)", "key": {"[1]": {"tested_on": "PC-3 cells", "experiment": "Alamar Blue proliferation assay, PC-3", "format": "cell-based", "settings": "Homo sapiens, 96 h; PC-3, 0-40 μM, 0.5% serum, 4 days; read-out: IC50 for growth inhibition", "experimental": "(§1) The effect of SR13904 on the proliferation of these cell lines was determined by an Alamar Blue assay. Exponentially growing cells were treated with a range of SR13904 concentrations (0-40 μM; in 0.5% serum) over 4 days and proliferation curves were determined. The IC50 values for growth inhibition by SR13904 for each cell line were determined. […] In addition, colony formation assays with SR13904 were performed with both A549 and Huh7 cells."}, "[2]": {"tested_on": "A549", "experiment": "Alamar Blue proliferation assay, A549", "format": "cell-based", "settings": "Homo sapiens, 96 h; A549, 0-40 μM, 0.5% serum, 4 days; read-out: IC50 for growth inhibition", "experimental": "as §1"}, "[3]": {"tested_on": "A549 cells", "experiment": "Apoptosis, Cell Death Detection ELISA (DNA fragmentation) in A549 cells", "format": "cell-based, human", "settings": "A549, 0.5% serum, SR13904 15 μM, 40 h", "experimental": "Referring now to FIG. 6, SR13904 treatment of cancer cells results in increased apoptosis. A549 cells (2×10^4 cells/well) were incubated in 0.5% media (96 well plates) SR13904 for 40 h. The relative degrees of apoptosis were determined using a Cell Death Detection ELISA (Roche). SR represents SR13904. ***p=<0.001 SR vs. SR+GW501.\nSR13904 treatment results in increased apoptosis. Down-regulation of PPARδ, either by genetic knockout or by the treatment with 13-S—HODE (15-lipoxygenase-1 product), induces apoptosis in colorectal cancer cells. The effects of SR13904 (15 μM) GW501 (1 μM) on survival of A549 cells (0.5% serum) was determined. Relative degrees of apoptosis were measured using a DNA fragmentation assay."}, "[4]": {"experiment": "Proliferation assay of Table 2 (cell line not stated)", "format": "cell-based", "settings": "concentration that inhibits cell viability (or growth) by 50% relative to vehicle control; read-out: Prolif IC50", "experimental": "The LANTHA SCREEN™ TR-FRET PPARδ Competitive Binding Assay was conducted for a variety of compounds according to the instructions provided by the manufacturer (Invitrogen). In addition, proliferation assays were conducted. In Table 2, “Prolif IC50” is the concentration that inhibits cell viability (or growth) by 50% relative to a vehicle control, and “TR-F binding IC50 (μM)” is the concentration that competes binding by a labeled pan-agonist to the ligand binding domain of PPAR delta, by 50%."}, "[5]": {"tested_on": "A549 cells", "experiment": "Cell cycle distribution by flow cytometry in A549 cells", "format": "cell-based, human", "settings": "A549, 2% FBS, 15 μM, after 24 h", "experimental": "Referring now to FIG. 5A, SR13904 exerts inhibitory effects on the cell cycle. A representative experiment in which A549 cells were grown in phenol-red-free DMEM+2% charcoal-treated FBS □ SR13904 ([…]). Cells were treated in the exponential phase and assessed by flow cytometry at 24 and 48 h.\nReferring now to FIG. 5B, SR13904 treatment arrests A549 cells in the G1 phase of the cell cycle. A549 cells were incubated in 2% FBS (to maintain a high proliferative state) and the cell-cycle profile was determined by flow cytometry after SR13904 treatment (15 μM) for 24 and 48 h, and compared with similar treatment by a control. […] All differences (SR13904-treated vs. vehicle control-treated) were significant; the G1 differences were highly significant (**p=0.001-0.01, ***p=<0.001). The results provide confirming evidence that activated PPARδ increases cell cycle progression through a positive effect on G1-phase cells, and that PPARδ activation upregulates CDK2, CDK4, and cyclin D1 expression patterns."}, "[6]": {"tested_on": "PC-3 cells", "experiment": "Western analysis of cyclin D1 and CDK2 in post-confluent PC-3 cells", "format": "cell-based, human", "settings": "post-confluent PC-3, 48 h, SR 13904 10 μM, vehicle- and VLDL-treated cells", "experimental": "Referring to FIG. 4, PC-3 cells were brought to confluence and cultured in serum-free OptiMem culture medium (Gibco) 2 h before treatment with a combination of VLDL (2 μg/ml+2 μg/ml LPL) and/or SR 13904 (10 μM) and incubated for an additional 48 h. Standard Western blotting was performed. Glyceraldehyde 3 phosphate dehydrogenase (GAPDH) was used a control for both blots."}, "[7]": {"tested_on": "A549 cultures", "experiment": "Real time PCR mRNA analysis of CDK2, CDK4, cyclin D1 in A549", "format": "cell-based, human", "settings": "A549, 20 μM, 0.5% FBS, 24 and 48 h", "experimental": "Referring now to FIG. 5D, to better define the level of regulation of SR13904 on cell cycle proteins, CDK2, CDK4, and cyclin D1 were selected for mRNA analysis using real time PCR. A549 cultures were treated with SR13904 (20 μM; 0.5% FBS) and sampled at 24- and 48-h time-points. […] For CDK2 the differences (SR13904-treated vs. vehicle control-treated) were significant (*p=0.01-0.05, **p=0.00-0.01). Computational analysis of the proximal human CDK2 promoter identified a number of putative consensus PPREs. None were found within the proximal promoter regions of the CDK4 and cyclin D1 genes. SR13904 may directly affect the transcriptional activity of CDK2 while exerting indirect effects on the expression of the CDK4 and cyclin D1 proteins, perhaps through control over PPARδ-dependent signaling pathways."}}}
{"smiles": "Cc1cc(SCc2sc(-c3cccc4ccccc34)nc2C)ccc1OCC(=O)O", "note": "[SR 13904]", "values": [{"measurement": "IC50", "setting": "[1]", "result": "> 30", "unit": "µM"}, {"measurement": "IC50", "setting": "[2]", "result": "8 to 10", "unit": "µM"}, {"measurement": "apoptosis (DNA fragmentation)", "setting": "[3]", "result": "significant apoptotic effect"}, {"measurement": "IC50", "setting": "[4]", "result": 12, "unit": "µM"}, {"measurement": "fraction of cells in the G1 phase", "setting": "[5]", "result": "significantly increased"}, {"measurement": "fraction of cells in the S phase", "setting": "[5]", "result": "decreased"}, {"measurement": "CDK2 protein levels", "setting": "[6]; VLDL 2 μg/ml + LPL 2 μg/ml", "result": "decreased"}, {"measurement": "cyclin D1 protein levels", "setting": "[6]", "result": "decreased"}, {"measurement": "CDK4 or cyclin D1 mRNA levels", "setting": "[7]", "result": "no effect"}, {"measurement": "steady state levels of CDK2 mRNA", "setting": "[7]", "result": "significantly reduced"}]}
